# Measurements taken from patent EP1914237B1 (priority 1999, dated 2001).
# Like-named read-outs stand apart in the source and are kept apart here.
# Key:
# [1] = tested on: human lung fibroblast cells (MRC-5); test: Cytotoxicity of test compounds in vitro in MRC-5 cells (visual estimate of cell number); format: cell-based
# Description: (§1) Cytotoxicity of test compounds in vitro: Subconfluent human lung fibroblast cells (MRC-5, American Type Culture Collection, Rockville, MD) in 24-well plates were treated with drugs diluted in E-MEM (Gibco BRL, Grand Island, NY) supplemented with 2% fetal bovine serum and antibiotics. After 5 days of incubation at 37°C, the cell monolayer was visually inspected under magnification and the concentration of drug which caused a 50% reduction in cell number was estimated.
# HSV-1 = test: microbe, parasite or virus in culture; format: cell-based
# HCMV [2] = tested on: HCMV
# vaccinia virus = test: microbe, parasite or virus in culture; format: cell-based; conditions: Orthopoxvirus vaccinia, HFF; for IC50: read-out: IC50 against vaccinia virus; for EC50: read-out: Vaccinia EC50, µM
# cowpox virus = test: microbe, parasite or virus in culture; format: cell-based; conditions: for IC50: read-out: IC50 in cowpox infected cells
# [3] = tested on: Variola Major, Bangladesh; test: organism not typed; format: cell-based; conditions: read-out: EC50, µM Variola Major, Bangladesh
# HFF Cells = conditions: human
# Vero cells = conditions: monkey
# CEM = test: Cytotoxicity in CEM cells; conditions: read-out: CEM, CC50; Table 1; rapidly dividing cells
# HCMV [4] = test: microbe, parasite or virus in culture; conditions: Human betaherpesvirus 5, MRC5
# Calvarial cells = test: Dexamethasone-induced apoptosis in calvarial cells (trypan blue uptake); format: cell-based, neonatal C57BL/6J mice; conditions: pretreated 1 hour, then 6 hours with 10^-4 dexamethasone; p=<0.05
# MLO-Y4 osteocytic cells = conditions: pretreated 1 hour, then 6 hours with 10^-4 M dexamethasone; percentage of dead cells; p<0.05
# Ovariectomized Rats = conditions: subcutaneous 0 to 8 mg /kg/day, four to twelve weeks; versus ovariectomized controls
# [5] = tested on: Humans with Steroid-Induced Osteoporosis; test: Stimulation of bone formation in humans with steroid-induced osteoporosis; format: in vivo; conditions: oral 0.1 to 100 mg/kg/day, one month to one year; versus placebo
# [6] = Cytotoxicity of test compounds in vitro in MRC-5 cells (visual estimate of cell number); format: cell-based, human; conditions: human, mrc-5 cells; Table 2; MRC-5, 5 days at 37°C
# Description: as §1
# [7] = Cytotoxicity by the method of Hostetler et al. (HIV study); format: cell-based; conditions: human, ht4-6c cells; Table 6; cell line of the cytotoxicity test not stated
# HIV-1 [8] = tested on: HIV-1
# HIV-1 [9] = test: microbe, parasite or virus in culture; conditions: Human immunodeficiency virus 1
# Vaccinia = test: microbe, parasite or virus in culture; format: cell-based; conditions: read-out: EC50, µM Vaccinia
# Cowpox = test: organism not typed; format: cell-based; conditions: read-out: EC50, µM Cowpox
# in vitro = conditions: monkey, vero cells
# Variola Major, Yamada = format: cell-based; conditions: Table 4; Vero cells; average of 3 determinations
# Variola Minor, Garcia = format: cell-based; conditions: Table 4; Vero cells; average of 3 determinations
# Humans with Osteoporosis = conditions: postmenopausal women, oral 0.1 to 100 mg/kg/day, two to three years; versus placebo
# [10] = Table 7, assessed as described in Example 17, 7200 min
# [11] = Cowpox virus, HFF, read-out: Cowpox, EC50, µM
# [12] = Table 1, against HCMV, CC50 in CEM cells
# [13] = Table 4, Vero cells, average of 3 determinations
compound,measurement,setting,value
CCCCCCCCCCCCCCCCCCOCCOP(=O)(O)COC(CO)Cn1ccc(N)nc1=O (stereo not drawn) [1-O-octadecylethanediol-2-CDV],CC50,"[1]; Table 2, MRC-5, 5 days at 37°C",210 µM
same,CC50,[1]; [10],210 µM
same,EC50,HSV-1; read-out: EC50,2 nM
1-O-octadecyl-sn-glyceryl-3-adefovir [1-O-octadecyl-sn-glycero-3-ADV],EC50,HCMV [2],210 nM
"Nc1ccn(C[C@H]2COP(=O)(O)CO2)c(=O)n1 [cCDV, cyclic cidofovir]",CC50,"[1]; Table 2, MRC-5, 5 days at 37°C",> 1000 µM
same,CC50,[1]; [10],> 1000 µM
same,IC50,vaccinia virus,970 nM
same,EC50,vaccinia virus,0.97 µM
same,EC50,cowpox virus; [11],0.72 µM
same,IC50,"cowpox virus; Cowpox virus, HFF",720 nM
same,EC50,[3]; Vero,100 µM
same,EC50,"HSV-1; Human alphaherpesvirus 1, MRC5",2100 nM
same,Selectivity Index,HCMV [2]; [12],">2,100"
same,CC50,HFF Cells,> 100 µM
same,CC50,Vero cells,> 100000 nM
same,CC50,CEM,> 1000 µM
same,EC50,HCMV [4],470 nM
CCCCCCCCCCCCCCCCCCOCCCOP(=O)(O)CO[C@H](CO)Cn1ccc(N)nc1=O [1-O-octadecylpropanediol-3-CDV],CC50,"[1]; Table 2, MRC-5, 5 days at 37°C",32 µM
same,CC50,[1]; [10],32 µM
same,EC50,HSV-1; read-out: EC50,3 nM
same,EC50,HCMV [2],0.03 nM
"CCCCCCCCCCCCCCCCOCCCOP(=O)(O)C(O)(CCCN)P(=O)(O)O (stereo not drawn) [HDP-alendronate, 1-O-hexadecylpropanediol-3-alendronate]",concentration at which the dexamethasone-induced increase in % dead cells is abolished,Calvarial cells,≥ 10^-8
same,concentration at which dexamethasone-induced apoptosis is inhibited,MLO-Y4 osteocytic cells,10^-8 to 10^-5 M
same,bone mass loss (ash weight of the femora),Ovariectomized Rats,less bone mass loss than the ovariectomized controls
CCCCCCCCCCCCCCCCOP1(=O)COC(Cn2ccc(N)nc2=O)CO1 (stereo not drawn) [Hexadecyl-cCDV],CC50,"[1]; Table 2, MRC-5, 5 days at 37°C",6.5 µM
same,EC50,HCMV [2],40 nM
1-O-octadecyloxypropyl-amino-olpadronate,bone density,[5],bone density is increased
same,fractures,[5],fractures are decreased
CCCCCCCCCCCCCCCCCCOCCOP1(=O)COC(Cn2ccc(N)nc2=O)CO1 (stereo not drawn) [1-O-octadecylethanediol-2-cCDV],CC50,"[1]; Table 2, MRC-5, 5 days at 37°C",320 µM
same,CC50,[1]; [10],320 µM
same,EC50,HSV-1; read-out: EC50,8 nM
same,EC50,HCMV [2],0.3 nM
CCCCCCCCCCCCCCCCOCCCOP(=O)(O)COCCn1cnc2c(N)ncnc21 [HDP-Adefovir],CC50 at 120 h,[6],6.5 µM
same,CC50,[7],6.5 µM
same,Selectivity Index,HCMV [2],65
same,"EC50,µM",HIV-1 [8],more active and selective than adefovir
same,Selectivity Index,HIV-1 [8],813
same,EC50,HCMV [4],100 nM
same,EC50,HIV-1 [9],8 nM
"Nc1ccn(C[C@@H](CO)OCP(=O)(O)O)c(=O)n1 [CDV, cidofovir]",CC50,"[1]; Table 2, MRC-5, 5 days at 37°C",> 1000 µM
same,CC50,[1]; [10],> 1000 µM
same,IC50,vaccinia virus,1800 nM
same,EC50,vaccinia virus,1.8 µM
same,EC50,cowpox virus; [11],2.1 µM
same,IC50,"cowpox virus; Cowpox virus, HFF",2100 nM
same,EC50,"Vaccinia; Orthopoxvirus vaccinia, Vero",2.2 µM
same,EC50,Cowpox; Vero,3.8 µM
same,EC50,[3]; Vero,100 µM
same,EC50,"HSV-1; Human alphaherpesvirus 1, MRC5",1200 nM
same,Selectivity Index,HCMV [2]; [12],"1,900"
same,CC50,HFF Cells,89.8 µM
same,CC50,in vitro,> 100 µM
same,CC50,CEM,857 µM
same,EC50,HCMV [4],460 nM
CCCCCCCCCCCCCCCCCCOCCCOP1(=O)COC(Cn2ccc(N)nc2=O)CO1 (stereo not drawn) [1-O-octadecylpropanediol-3-cCDV],CC50,"[1]; Table 2, MRC-5, 5 days at 37°C",320 µM
same,CC50,[1]; [10],320 µM
same,EC50,HSV-1; read-out: EC50,330 nM
same,EC50,HCMV [2],0.3 nM
CCCCCCCCCCCCCCCCOCCCOP(=O)(O)CO[C@H](CO)Cn1ccc(N)nc1=O [HDP-CDV],CC50,"[1]; Table 2, MRC-5, 5 days at 37°C",10 µM
same,CC50,[1]; [10],10 µM
same,EC50,Vaccinia; [13],< 0.03 µM
same,EC50,Cowpox; [13],< 0.03 µM
same,EC50,[3]; [13],0.0015 µM
same,EC50,"Variola Major, Yamada",0.0015 µM
same,EC50,"Variola Minor, Garcia",0.0006 µM
same,EC50,HCMV [2],0.002 nM
same,CC50,Vero cells,> 100 nM
"CCCCCCCCCCCCCCCCOCCCOP1(=O)COC(Cn2ccc(N)nc2=O)CO1 (stereo not drawn) [HDP-cCDV, 1-O-hexadecylpropanediol-3-cyclic CDV]",CC50,"[1]; Table 2, MRC-5, 5 days at 37°C",320 µM
same,CC50,[1]; [10],320 µM
same,EC50,"cowpox virus; Table 3, preliminary, HFF cells, CPE reduction, read-out: Cowpox, EC50",< 0.03 µM
same,IC50,cowpox virus; Table 3,< 30 nM
same,EC50,Cowpox; [13],< 0.03 µM
same,EC50,[3]; [13],> 0.01 µM
same,EC50,HSV-1; read-out: EC50,30 nM
same,EC50,HCMV [2],0.3 nM
same,EC50,HCMV [2]; read-out: HCMV EC50,0.5 nM
same,CC50,HFF Cells,> 100 µM
same,CC50,Vero cells,> 100 nM
same,CC50,CEM,30 µM
"CCCCCCCCCCCCCCCCCCOCCCOP(=O)(O)C(O)(CCCN)P(=O)(O)O (stereo not drawn) [1-O-octadecyloxypropyl alendronate, 1-O-octadecyloxypropyl-alendronate]",fractures,Humans with Osteoporosis,fewer fractures
same,rate of reduction in bone density,Humans with Osteoporosis,a lesser rate of reduction in bone density than the placebo group
